Format in all cases: cell-based
The target in test [1] is T1, GLP-1 receptor (Homo sapiens, UniProt P43220). The experiment in a line: HitHunter cAMP assay, GLP-1 receptor. The following applies: for EC50: CHO cells stably expressing human GLP-1 receptor, cAMP accumulation, 30 min, read-out: EC50 GLP-1R; for Emax: CHO cells, cAMP, normalized to maximum signal from GLP-1 (high) and DMSO (low), read-out: Emax GLP-1R. (In general: cAMP levels reflect the balance of adenylyl cyclase and phosphodiesterase activity.)

In test [2] the target is T2, GIP receptor (Homo sapiens, UniProt P48546).
T2 sequence (P48546 22-466): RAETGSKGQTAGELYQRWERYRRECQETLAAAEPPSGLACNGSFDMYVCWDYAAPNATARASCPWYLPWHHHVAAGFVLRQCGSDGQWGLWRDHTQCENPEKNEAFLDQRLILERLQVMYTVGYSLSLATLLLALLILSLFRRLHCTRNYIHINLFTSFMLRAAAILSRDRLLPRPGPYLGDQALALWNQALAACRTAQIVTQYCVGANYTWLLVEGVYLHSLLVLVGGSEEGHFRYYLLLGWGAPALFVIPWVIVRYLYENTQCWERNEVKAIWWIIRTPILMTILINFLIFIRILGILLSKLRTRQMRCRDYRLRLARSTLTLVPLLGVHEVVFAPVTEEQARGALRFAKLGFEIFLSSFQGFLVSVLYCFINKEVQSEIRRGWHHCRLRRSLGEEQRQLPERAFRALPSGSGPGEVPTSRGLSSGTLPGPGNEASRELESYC
The test can be described thus: HitHunter cAMP assay, GIP receptor. The note with it: for EC50: CHO cells stably expressing GIP receptor, cAMP accumulation, 30 min, read-out: EC50 GIP-1R; for Emax: CHO cells, cAMP, normalized to maximum signal from GIP (high) and DMSO (low), read-out: Emax GIP-1R.

Test [3] concerns the target T1, GLP-1 receptor. The experiment in a line: PathHunter β-arrestin assay, GLP-1 receptor. Further details: host or cells: PathHunter CHO-K1 GLP1R β-Arrestin Cell Line. The note with it: β-arrestin-2 recruitment, PathHunter CHO-K1 GLP1R β-Arrestin Cell Line, 90 min at 37° C.; normalized to GLP-1; read-out: GLP-1R β Arrestin EC50. For orientation: Recruitment of arrestin is a read-out of receptor activation apart from second messengers.

Test [4] addresses T2, GIP receptor. The experiment in a line: PathHunter β-arrestin assay, GIP receptor. The note with it: β-arrestin-2 recruitment, PathHunter CHO-K1 GIPR β-Arrestin Cell Line, 90 min at 37° C.; normalized to GIP; read-out: GIPR β Arrestin EC50. Further details: host or cells: PathHunter CHO-K1 GIPR β-Arrestin Cell Line.

The structures appear in SMILES notation. *1 amine or outer side, *2 acyl side, *3 side chain or, on linkers, in order; H or OH if unused. Where a SMILES comes first, the peptide text is derived from it. Side-chain parts run from the residue outwards. [ ]: non-standard residue; d: D form. The star is where a group is joined. C20 diacid = O=C(O)CCCCCCCCCCCCCCCCCCC(=O)*; γGlu = O=C(O)[C@H](CCC(=O)[*:2])N[*:1]; X51 = COc1cccc(C2(C(=O)*)CCCC2)c1; X59 = COc1ccc(C2(C(=O)*)CCCC2)cc1; X55 = COc1cccc(C(C)(C)C(=O)*)c1; X15 = O=C(C1(c2cccc(F)c2)CC1)*; AEEA = NCCOCCOCC(=O)O; Aib = CC(C)(N)C(=O)O; βAla = NCCC(=O)O

T1 sequence (P43220 24-463): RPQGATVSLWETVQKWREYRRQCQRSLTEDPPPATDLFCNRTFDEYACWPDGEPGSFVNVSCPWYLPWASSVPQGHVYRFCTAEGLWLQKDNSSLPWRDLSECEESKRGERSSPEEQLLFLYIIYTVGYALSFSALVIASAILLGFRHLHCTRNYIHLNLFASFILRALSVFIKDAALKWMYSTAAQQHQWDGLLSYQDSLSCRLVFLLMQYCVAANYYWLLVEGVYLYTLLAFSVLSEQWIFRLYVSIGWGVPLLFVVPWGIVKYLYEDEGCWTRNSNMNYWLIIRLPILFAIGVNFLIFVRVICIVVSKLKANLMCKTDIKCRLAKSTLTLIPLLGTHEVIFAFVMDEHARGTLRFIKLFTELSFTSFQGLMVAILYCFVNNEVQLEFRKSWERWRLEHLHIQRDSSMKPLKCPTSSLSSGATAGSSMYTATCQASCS

One may read the EC50 as the midpoint of the concentration-response curve. Usually Emax stands for the maximal effect, on the per cent scale that the assay sets. As to `CC[C@H](C)[C@H](NC(=O)[C@H](CC(C)C)NC(=O)[C@H](Cc1c[nH]c2ccccc12)NC(=O)[C@H](CCC(N)=O)NC(=O)[C@@H](NC(=O)[C@H](Cc1ccccc1)NC(=O)[C@H](C)NC(=O)[C@H](CCCCNC(=O)COCCOCCNC(=O)COCCOCCNC(=O)CC[C@H](NC(=O)CCCCCCCCCCCCCCCCCCC(=O)O)C(=O)O)NC(=O)[C@H](CCC(N)=O)NC(=O)[C@H](C)NC(=O)[C@@H](NC(=O)[C@H](CCCCN)NC(=O)[C@H](CC(=O)O)NC(=O)[C@H](CC(C)C)NC(=O)C(C)(C)NC(=O)[C@@H](NC(=O)[C@H](CO)NC(=O)[C@H](Cc1ccc(O)cc1)NC(=O)[C@H](CC(=O)O)NC(=O)[C@H](CO)NC(=O)[C@@H](NC(=O)[C@H](Cc1ccccc1)NC(=O)[C@@H](NC(=O)CNC(=O)[C@H](CCC(=O)O)NC(=O)CCNC(=O)C1(c2cccc(F)c2)CC1)[C@@H](C)O)[C@@H](C)O)[C@@H](C)CC)[C@@H](C)CC)C(C)C)C(=O)N[C@@H](C)C(=O)NCC(=O)NCC(=O)N1CCC[C@H]1C(=O)N[C@@H](CO)C(=O)N[C@@H](CO)C(=O)NCC(=O)N[C@@H](C)C(=O)N1CCC[C@H]1C(=O)N1CCC[C@H]1C(=O)N1CCC[C@H]1C(=O)N[C@@H](CO)C(N)=O` [Compound 206] ({X15-βAla}-EGTFTSDYSI[Aib]LDKIAQK([AEEA-AEEA-γGlu-C20 diacid])AFVQWLIAGGPSSGAPPPS-NH2), the EC50 was 1 to 10 nM in test [1], 10 to 100 nM in test [2], above 1000 nM in test [3] and above 1000 nM in test [4]. The Emax is 98% in test [1] and 106% in test [2].
With `CC[C@H](C)[C@H](NC(=O)[C@H](CC(C)C)NC(=O)[C@H](Cc1c[nH]c2ccccc12)NC(=O)[C@H](CCC(N)=O)NC(=O)[C@@H](NC(=O)[C@H](Cc1ccccc1)NC(=O)[C@H](C)NC(=O)[C@H](CCCCNC(=O)COCCOCCNC(=O)COCCOCCNC(=O)CC[C@H](NC(=O)CCCCCCCCCCCCCCCCCCC(=O)O)C(=O)O)NC(=O)[C@H](CCC(N)=O)NC(=O)[C@H](C)NC(=O)[C@@H](NC(=O)[C@H](CCCCN)NC(=O)[C@H](CC(=O)O)NC(=O)[C@H](CC(C)C)NC(=O)C(C)(C)NC(=O)[C@@H](NC(=O)[C@H](CO)NC(=O)[C@H](Cc1ccc(O)cc1)NC(=O)[C@H](CC(=O)O)NC(=O)[C@H](CO)NC(=O)[C@@H](NC(=O)[C@H](Cc1ccccc1)NC(=O)[C@@H](NC(=O)CNC(=O)[C@H](CCC(=O)O)NC(=O)CCNC(=O)C1(c2cccc(OC)c2)CCCC1)[C@@H](C)O)[C@@H](C)O)[C@@H](C)CC)[C@@H](C)CC)C(C)C)C(=O)N[C@@H](C)C(=O)NCC(=O)NCC(=O)N1CCC[C@H]1C(=O)N[C@@H](CO)C(=O)N[C@@H](CO)C(=O)NCC(=O)N[C@@H](C)C(=O)N1CCC[C@H]1C(=O)N1CCC[C@H]1C(=O)N1CCC[C@H]1C(=O)N[C@@H](CO)C(N)=O` [Compound 207] ({X51-βAla}-EGTFTSDYSI[Aib]LDKIAQK([AEEA-AEEA-γGlu-C20 diacid])AFVQWLIAGGPSSGAPPPS-NH2), the EC50 was 1 to 10 nM in test [1], 1 to 10 nM in test [2], above 1000 nM in test [3] and above 1000 nM in test [4]. Moreover, the Emax was determined as 97% in test [1] and 109% in test [2].
Turning to `CC[C@H](C)[C@H](NC(=O)[C@H](CC(C)C)NC(=O)[C@H](Cc1c[nH]c2ccccc12)NC(=O)[C@H](CCC(N)=O)NC(=O)[C@@H](NC(=O)[C@H](Cc1ccccc1)NC(=O)[C@H](C)NC(=O)[C@H](CCCCNC(=O)COCCOCCNC(=O)COCCOCCNC(=O)CC[C@H](NC(=O)CCCCCCCCCCCCCCCCCCC(=O)O)C(=O)O)NC(=O)[C@H](CCC(N)=O)NC(=O)[C@H](C)NC(=O)[C@@H](NC(=O)[C@H](CCCCN)NC(=O)[C@H](CC(=O)O)NC(=O)[C@H](CC(C)C)NC(=O)C(C)(C)NC(=O)[C@@H](NC(=O)[C@H](CO)NC(=O)[C@H](Cc1ccc(O)cc1)NC(=O)[C@H](CC(=O)O)NC(=O)[C@H](CO)NC(=O)[C@@H](NC(=O)[C@H](Cc1ccccc1)NC(=O)[C@@H](NC(=O)CNC(=O)[C@H](CCC(=O)O)NC(=O)CCNC(=O)C1(c2ccc(OC)cc2)CCCC1)[C@@H](C)O)[C@@H](C)O)[C@@H](C)CC)[C@@H](C)CC)C(C)C)C(=O)N[C@@H](C)C(=O)NCC(=O)NCC(=O)N1CCC[C@H]1C(=O)N[C@@H](CO)C(=O)N[C@@H](CO)C(=O)NCC(=O)N[C@@H](C)C(=O)N1CCC[C@H]1C(=O)N1CCC[C@H]1C(=O)N1CCC[C@H]1C(=O)N[C@@H](CO)C(N)=O` [Compound 208] ({X59-βAla}-EGTFTSDYSI[Aib]LDKIAQK([AEEA-AEEA-γGlu-C20 diacid])AFVQWLIAGGPSSGAPPPS-NH2), the EC50 in test [1] was 1 to 10 nM; in test [2], 1 to 10 nM; in test [3] it was above 1000 nM; in test [4], below 1000 nM. The maximal response (Emax) amounted to 111% in test [1] and 109% in test [2].
As for `CC[C@H](C)[C@H](NC(=O)[C@H](CC(C)C)NC(=O)[C@H](Cc1c[nH]c2ccccc12)NC(=O)[C@H](CCC(N)=O)NC(=O)[C@@H](NC(=O)[C@H](Cc1ccccc1)NC(=O)[C@H](C)NC(=O)[C@H](CCCCNC(=O)COCCOCCNC(=O)COCCOCCNC(=O)CC[C@H](NC(=O)CCCCCCCCCCCCCCCCCCC(=O)O)C(=O)O)NC(=O)[C@H](CCC(N)=O)NC(=O)[C@H](C)NC(=O)[C@@H](NC(=O)[C@H](CCCCN)NC(=O)[C@H](CC(=O)O)NC(=O)[C@H](CC(C)C)NC(=O)C(C)(C)NC(=O)[C@@H](NC(=O)[C@H](CO)NC(=O)[C@H](Cc1ccc(O)cc1)NC(=O)[C@H](CC(=O)O)NC(=O)[C@H](CO)NC(=O)[C@@H](NC(=O)[C@H](Cc1ccccc1)NC(=O)[C@@H](NC(=O)CNC(=O)[C@H](CCC(=O)O)NC(=O)CCNC(=O)C(C)(C)c1cccc(OC)c1)[C@@H](C)O)[C@@H](C)O)[C@@H](C)CC)[C@@H](C)CC)C(C)C)C(=O)N[C@@H](C)C(=O)NCC(=O)NCC(=O)N1CCC[C@H]1C(=O)N[C@@H](CO)C(=O)N[C@@H](CO)C(=O)NCC(=O)N[C@@H](C)C(=O)N1CCC[C@H]1C(=O)N1CCC[C@H]1C(=O)N1CCC[C@H]1C(=O)N[C@@H](CO)C(N)=O` [Compound 209] ({X55-βAla}-EGTFTSDYSI[Aib]LDKIAQK([AEEA-AEEA-γGlu-C20 diacid])AFVQWLIAGGPSSGAPPPS-NH2), the half-maximal effective concentration (EC50) in test [1] was 0.1 to 1 nM; in test [2], 10 to 100 nM; in test [3] it was above 1000 nM; in test [4], above 1000 nM. Besides, the Emax in test [1] was 101%; in test [2] it was 105%.

The values are drawn from patent publication US12281149B2, “Modulators of G-protein coupled receptors” (priority 2021, dated 2025).
